Compound	melting point
CCc1cccc(N2CCN(CC[C@H]3CC[C@H](NC(=O)CC(F)(F)F)CC3)CC2)c1 [Example 250, N-(4-{2-[4-(3-Ethylphenyl)-piperazin-1-yl]ethyl}cyclohexyl)-3,3,3-trifluoropropanamide]	154 °C
N#CCC(=O)N[C@H]1CC[C@H](CCN2CCc3cc(C#N)ccc3C2)CC1 [Example 559, 2-Cyano-N-{4-[2-(6-cyano-3,4-dihydro-1H-isoquinolin-2-yl)ethyl]cyclohexyl}acetamide]	206 °C
Cc1cc(C)cc(C2=CCN(CC[C@H]3CC[C@H](NC(=O)CC#N)CC3)CC2)c1	182 °C
CC(O)c1cccc(N2CCN(CC[C@H]3CC[C@H](NC(=O)CC(F)(F)F)CC3)CC2)c1 (stereo partly shown) [Example 477, 3,3,3-trifluoro-N-[4-(2-{4-[3-(1-hydroxyethyl)phenyl]piperazin-1-yl}ethyl)cyclohexyl]propanamide]	190 °C
COCC(=O)N[C@H]1CC[C@H](CCN2CCN(c3cc(F)cc(Cl)c3)CC2)CC1 [Example 742, N-(4-{2-[4-(3-Chloro-5-fluorophenyl)piperazin-1-yl]ethyl}cyclohexyl)-2-methoxyacetamide]	132 °C
CC(=O)CN1CCC(CCN2CCN(c3cccc(F)c3C)CC2)CC1.Cl.Cl	317 °C
Cc1ccc(F)c(N2CCN(CC[C@H]3CC[C@H](NC(=O)CCCC#N)CC3)CC2)c1 [Example 440, 4-Cyano-N-(4-{2-[4-(2-fluoro-5-methylphenyl)piperazin-1-yl]ethyl}cyclohexyl)butanamide]	156 °C
CC(=O)CN1CCC(CCN2CCN(c3cc(C(F)(F)F)ccc3F)CC2)CC1.Cl.Cl	230 °C
N#CCC(=O)N[C@H]1CC[C@H](CCN2CCN(c3cccc4c3CCCC4)CC2)CC1 [Example 116, 2-Cyano-N-(4-{2-[4-(5,6,7,8-tetrahydronaphthalen-1-yl)piperazin-1-yl]ethyl}cyclohexyl)acetamide]	175 °C
CC(=O)CN1CCC(CCN2CCN(c3cc(C)ccc3Cl)CC2)CC1.Cl.Cl	283 °C
O=C(CCC(F)(F)F)N[C@H]1CC[C@H](CCN2CCN(c3cccc(C(F)(F)F)c3)CC2)CC1 [Example 265, 4,4,4-Trifluoro-N-(4-{2-[4-(3-trifluoromethylphenyl)piperazin-1-yl]ethyl}cyclohexyl)butanamide]	152 °C
O=C(N[C@H]1CC[C@H](CCN2CCN(c3cccc(C(F)(F)F)c3F)CC2)CC1)C1=CCCC1 [Example 458, Cyclopent-1-enecarboxylic acid (4-{2-[4-(2-fluoro-3-trifluoro-methylphenyl)piperazin-1-yl]ethyl}cyclohexyl) amide]	190 °C
N#CCC(=O)N[C@H]1CC[C@H](CCN2CCN(c3ccc(F)cc3F)CC2)CC1 [Example 162, 2-Cyano-N-(4-{2-[4-(2,4-difluorophenyl)piperazin-1-yl]ethyl}cyclohexyl)acetamide]	188 °C
N#CCCCC(=O)N[C@H]1CC[C@H](CCN2CC=C(c3ccc(F)cc3)CC2)CC1	180 °C
COc1ccc(C(F)(F)F)cc1N1CCN(CCC2CCN(CC(C)=O)CC2)CC1.Cl.Cl	260 °C
O=C(COc1ccc(F)cc1)N[C@H]1CC[C@H](CCN2CCN(c3ccc(F)cc3F)CC2)CC1 [Example 385, N-(4-{2-[4-(2,4-Difluorophenyl)piperazin-1-yl]ethyl}cyclohexyl)-2-(4-fluorophenoxy)acetamide]	162 °C
N#CCC(=O)N[C@H]1CC[C@H](CCN2CCN(c3cccc(F)c3F)CC2)CC1 [Example 113, 2-Cyano-N-(4-{2-[4-(2,3-difluorophenyl)piperazin-1-yl]ethyl}cyclohexyl)acetamide]	190 °C
O=C(C[C@H]1CC[C@H](CCN2CCN(c3cccc(C(F)(F)F)c3)CC2)CC1)N1CCCC1 [Example 294, 1-Pyrrolidin-1-yl-2-(4-{2-[4-(3-trifluoromethylphenyl)piperazin-10yl]ethyl}cyclohexyl)ethanone]	131 °C
COC(=O)N[C@H]1CC[C@H](CCN2CCN(c3cccc(C(F)(F)F)c3)CC2)CC1 [Example 39, (4-{2-[4-(3-Trifluoromethyl-phenyl)piperazin-1-yl]ethyl}cyclo-hexyl)carbamic acid methyl ester]	135 °C
Cc1ccccc1C1=CCN(CC[C@H]2CC[C@H](NC(=O)CC#N)CC2)CC1	166 °C
N#CCCC(=O)N[C@H]1CC[C@H](CCN2CCN(c3cccc(F)c3)CC2)CC1 [Example 412, 3-Cyano-N-(4-{2-[4-(3-fluorophenyl)piperazin-1-yl]ethyl}cyclohexyl)propanamide]	186 °C
CC(C)(C)c1cc(N2CCN(CC[C@H]3CC[C@H](NC(=O)CC#N)CC3)CC2)nc(C(C)(C)C)n1 [Example 111, 2-Cyano-N-(4-{2-[4-(2,6-di-tert-butylpyrimidin-4-yl)piperazin-1-yl]ethyl}cyclohexyl)acetamide trans/cis 65/35]	145 °C
CCC(=O)C(=O)N1CCC(CCN2CCN(c3cccc(C(F)(F)F)c3)CC2)CC1.Cl	148 °C
CC(=O)CN1CCC(CCN2CCN(c3ccc(F)c(C)c3)CC2)CC1.Cl.Cl	258 °C
CCOc1cccc(N2CCN(CC[C@H]3CC[C@H](NC(=O)CC#N)CC3)CC2)c1 [Example 170, 2-Cyano-N-(4-{2-[4-(3-ethoxyphenyl)piperazin-1-yl]ethyl}cyclohexyl)acetamide]	157 to 159 °C

Compound	melting point
CC(=O)CN1CCC(CCN2CCN(c3cc(C)ccc3C)CC2)CC1.Cl.Cl	350 °C
N#CCC(=O)N[C@H]1CC[C@H](CCN2CCN(c3ccc(F)c(C#N)c3)CC2)CC1 [Example 660, 2-Cyano-N-(4-{2-[4-(3-cyano-4-fluorophenyl)piperazin-1-yl]ethyl}cyclohexyl)acetamide]	185 °C
CC(=O)CN1CCC(CCN2CCN(c3cc(C)cc(C)c3)CC2)CC1.Cl.Cl	275 °C
CCOCC(=O)N[C@H]1CC[C@H](CCN2CC=C(c3cccc(C(F)(F)F)c3)CC2)CC1	75 °C
CCOCC(=O)N[C@H]1CC[C@H](CCN2CCN(c3cccc(F)c3F)CC2)CC1 [Example 112, N-(4-{2-[4-(2,3-Difluorophenyl)-piperazin-1-yl]ethyl}cyclohexyl)-2-ethoxyacetamide]	140 °C
O=C(N[C@H]1CC[C@H](CCN2CC=C(c3ccccc3)CC2)CC1)C1=CCCC1	202 °C
N#CCC(=O)N[C@H]1CC[C@H](CCN2CCN(c3cccc(SC(F)(F)F)c3)CC2)CC1 [Example 343, 2-Cyano-N-(4-{2-[4-(3-trifluoromethylsulfanylphenyl)piperazin-1-yl]ethyl}cyclohexyl)-acetamide]	165 °C
CNC(=O)C=C1CCC(CCN2CCN(c3ccccc3F)CC2)CC1 (stereo not shown) [Example 299, 2-(4-{2-[4-(2-Fluorophenyl)piperazin-1-yl]ethyl}cyclohexylidene)-N-methylacetamide]	135 °C
CC(=O)CCC(=O)N[C@H]1CC[C@H](CCN2CCN(c3cc(C(F)(F)F)cc(C(F)(F)F)c3)CC2)CC1 [Example 222, 4-Oxopentanoic acid (4-{2-[4-(3,5-bis-trifluoromethylphenyl)piperazin-1-yl]ethyl}cyclohexyl)amide]	172 to 174 °C
Cc1cc(N2CCN(CC[C@H]3CC[C@H](NC(=O)CC#N)CC3)CC2)ccc1F [Example 322, 2-Cyano-N-(4-{2-[4-(4-fluoro-3-methylphenyl)piperazin-1-yl]ethyl}cyclohexyl)acetamide]	192 °C
CC(=O)CN1CCC(CCN2CCN(c3cc(C(C)(C)C)cc(C(C)(C)C)c3)CC2)CC1.Cl.Cl	308 °C
Cl.O=C(CC(F)(F)F)N1CCC(CCN2CCN(c3cccc4c3CCC4)CC2)CC1	206 °C
COCCCC(=O)N[C@H]1CC[C@H](CCN2CCN(c3cc(F)cc(Cl)c3)CC2)CC1 [Example 740, N-(4-{2-[4-(3-Chloro-5-fluorophenyl)piperazin-1-yl]ethyl}cyclohexyl)-4-methoxybutanamide]	177 °C
COCCCC(=O)N[C@H]1CC[C@H](CCN2CCN(c3cccc(Cl)c3C)CC2)CC1 [Example 547, N-(4-{2-[4-(3-Chloro-2-methylphenyl)piperazin-1-yl]ethyl}cyclohexyl)-4-methoxybutanamide]	188 °C
COc1cc(N2CCN(CC[C@H]3CC[C@H](NC(=O)CCCC#N)CC3)CC2)cc(C(F)(F)F)c1 [Example 421, 4-Cyano-N-(4-{2-[4-(3-methoxy-5-trifluoromethylphenyl)piperazin-1-yl]ethyl}cyclohexyl)butanamide]	147 °C
N#CCC(=O)N[C@H]1CC[C@H](CCN2CC=C(c3ccc(F)cc3)CC2)CC1	202 °C
N#CCCCC(=O)N[C@H]1CC[C@H](CCN2CCN(c3ccc(F)c(F)c3F)CC2)CC1 [Example 451, 4-Cyano-N-(4-{2-[4-(2,3,4-trifluorophenyl)piperazin-1-yl]ethyl}cyclohexyl)butanamide]	178 °C
CC(=O)CN1CCC(CCN2CCN(c3cc(F)c(F)c(F)c3)CC2)CC1 [Example 697, 1-(4-{2-[4-(3,4,5-Trifluoro-phenyl)-piperazin-1-yl]ethyl}piperidin-1-yl)propan-2-one]	86 °C
COCCCC(=O)N[C@H]1CC[C@H](CCN2CCN(c3ccc(F)c(C#N)c3F)CC2)CC1 [Example 692, N-(4-{2-[4-(3-Cyano-2,4-difluorophenyl)piperazin-1-yl]ethyl}cyclohexyl)-4-methoxybutanamide]	211 °C
COCCCC(=O)N[C@H]1CC[C@H](CCN2CCN(c3cc(F)cc(C(F)(F)F)c3)CC2)CC1 [Example 757, N-(4-{2-[4-(3-Fluoro-5-trifluoromethylphenyl)piperazin-1-yl]ethyl}cyclohexyl)-4-methoxybutanamide]	177 °C
CC(=O)CN1CCC(CCN2CCN(c3ccc(C)c(C(F)(F)F)c3)CC2)CC1.Cl.Cl	325 °C
CC(=O)CN1CCC(CCN2CCN(c3ccc4c(c3)CCC4)CC2)CC1.Cl.Cl	291 °C
COCC(=O)N1CCC(CCN2CCN(c3cccc(C(F)(F)F)c3)CC2)CC1.Cl	150 °C
Cl.N#CCCCC(=O)N1CCC(CCN2CCN(c3cccc(C(F)(F)F)c3)CC2)CC1	95 °C

From US8802678B2, “Carbonylated (aza) cyclohexanes as dopamine D3 receptor ligands” (Bioprojet, priority 2006, dated 2014)
